Reference: PubChem BioAssay (NCI)
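Exposure lasted 48 hours, with cells grown in 96-well plates and compounds tested at five concentrations. GI50 marks 50% less growth. At the TGI there is no net growth.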

Key:
Test in all cases: DTP human tumour cell line panel, 48 h
A549 NSCLC = test system: A549 NSCLC
BT-549 breast = test system: BT-549 breast
U251 CNS = test system: U251 CNS
NCI-H23 lung = test system: NCI-H23 lung
UACC-257 melanoma = test system: UACC-257 melanoma
SR leukemia = test system: SR leukemia
UACC-62 melanoma = test system: UACC-62 melanoma
KM12 colon = test system: KM12 colon
SW-620 colon = test system: SW-620 colon
SNB-75 CNS = test system: SNB-75 CNS
HCC-2998 colon = test system: HCC-2998 colon
DU-145 prostate = test system: DU-145 prostate
EKVX NSCLC = test system: EKVX NSCLC
OVCAR-8 ovarian = test system: OVCAR-8 ovarian
OVCAR-4 ovarian = test system: OVCAR-4 ovarian
786-0 renal = test system: 786-0 renal
OVCAR-3 ovarian = test system: OVCAR-3 ovarian
HT29 colon = test system: HT29 colon
HCT-15 colon = test system: HCT-15 colon
IGROV1 ovarian = test system: IGROV1 ovarian
HOP-62 NSCLC = test system: HOP-62 NSCLC
OVCAR-5 ovarian = test system: OVCAR-5 ovarian
MDA-MB-435 = test system: MDA-MB-435
SF-268 CNS = test system: SF-268 CNS
SF-539 CNS = test system: SF-539 CNS
SK-OV-3 ovarian = test system: SK-OV-3 ovarian
HOP-92 NSCLC = test system: HOP-92 NSCLC
MDA-MB-231 breast = test system: MDA-MB-231 breast
MALME-3M melanoma = test system: MALME-3M melanoma
M14 melanoma = test system: M14 melanoma
NCI-H522 lung = test system: NCI-H522 lung
RPMI-8226 leukemia = test system: RPMI-8226 leukemia
NCI/ADR-RES ovarian = test system: NCI/ADR-RES ovarian
HS 578T breast = test system: HS 578T breast
HL-60(TB) leukemia = test system: HL-60(TB) leukemia
LOX IMVI melanoma = test system: LOX IMVI melanoma
T-47D breast = test system: T-47D breast
NCI-H460 lung = test system: NCI-H460 lung
SK-MEL-28 melanoma = test system: SK-MEL-28 melanoma
CCRF-CEM leukemia = test system: CCRF-CEM leukemia
SN12C renal = test system: SN12C renal
PC-3 prostate = test system: PC-3 prostate
SK-MEL-2 melanoma = test system: SK-MEL-2 melanoma
UO-31 renal = test system: UO-31 renal
CAKI-1 renal = test system: CAKI-1 renal
SNB-19 CNS = test system: SNB-19 CNS
A498 renal = test system: A498 renal
ACHN renal = test system: ACHN renal
SK-MEL-5 melanoma = test system: SK-MEL-5 melanoma
NCI-H226 lung = test system: NCI-H226 lung
MOLT-4 leukemia = test system: MOLT-4 leukemia
HCT-116 colon = test system: HCT-116 colon
MCF7 breast = test system: MCF7 breast
RXF 393 renal = test system: RXF 393 renal
TK-10 renal = test system: TK-10 renal

## Clc1ccc(C(Cn2ccnc2)OCc2ccsc2Cl)c(Cl)c1 (centres undefined)
A549 NSCLC
  GI50: 3.12 µM
  TGI: 14.2 µM
BT-549 breast
  GI50: 2.92 µM
  TGI: 9.01 µM
U251 CNS
  GI50: 2.79 µM
  TGI: 11.2 µM
NCI-H23 lung
  GI50: 2.18 µM
  TGI: 8.77 µM
UACC-257 melanoma
  GI50: 3.01 µM
  TGI: 11.8 µM
SR leukemia
  GI50: 2.28 µM
  TGI: 7.62 µM
UACC-62 melanoma
  GI50: 3.72 µM
  TGI: 14.3 µM
KM12 colon
  GI50: 3.01 µM
  TGI: 13.5 µM
SW-620 colon
  GI50: 3.27 µM
  TGI: 12.3 µM
SNB-75 CNS
  GI50: 2.32 µM
  TGI: 8.22 µM
HCC-2998 colon
  GI50: 2.73 µM
  TGI: 9.46 µM
DU-145 prostate
  GI50: 7.69 µM
  TGI: 20.6 µM
EKVX NSCLC
  GI50: 2.51 µM
  TGI: 13.4 µM
OVCAR-8 ovarian
  GI50: 3.05 µM
  TGI: 14.3 µM
OVCAR-4 ovarian
  GI50: 2.34 µM
  TGI: 12.7 µM
786-0 renal
  GI50: 2.97 µM
  TGI: 9.89 µM
OVCAR-3 ovarian
  GI50: 5.11 µM
  TGI: 16.4 µM
HT29 colon
  GI50: 2.73 µM
  TGI: 9.34 µM
HCT-15 colon
  GI50: 3.95 µM
  TGI: 14.2 µM
IGROV1 ovarian
  GI50: 3.15 µM
  TGI: 14 µM
HOP-62 NSCLC
  GI50: 4.92 µM
  TGI: 16.9 µM
OVCAR-5 ovarian
  GI50: 4.91 µM
  TGI: 18.2 µM
MDA-MB-435
  GI50: 2.16 µM
  TGI: 5.59 µM
SF-268 CNS
  GI50: 4.73 µM
  TGI: 30 µM
SF-539 CNS
  GI50: 4.23 µM
  TGI: 14.9 µM
SK-OV-3 ovarian
  GI50: 5.08 µM
  TGI: 16.8 µM
HOP-92 NSCLC
  GI50: 1.6 µM
  TGI: 5.93 µM
MDA-MB-231 breast
  GI50: 4.34 µM
  TGI: 18.6 µM
MALME-3M melanoma
  GI50: 2.62 µM
  TGI: 8.62 µM
M14 melanoma
  GI50: 2.72 µM
  TGI: 8.27 µM
NCI-H522 lung
  GI50: 2.7 µM
  TGI: 9.52 µM
RPMI-8226 leukemia
  GI50: 1.81 µM
  TGI: 5.53 µM
NCI/ADR-RES ovarian
  GI50: 1.91 µM
  TGI: 5.71 µM
HS 578T breast
  GI50: 4.44 µM
  TGI: > 100 µM
HL-60(TB) leukemia
  GI50: 1.82 µM
  TGI: 4.96 µM
LOX IMVI melanoma
  GI50: 2.51 µM
T-47D breast
  GI50: 4.04 µM
  TGI: 16.9 µM
NCI-H460 lung
  GI50: 2.84 µM
  TGI: 10.1 µM
SK-MEL-28 melanoma
  GI50: 4.18 µM
  TGI: 15.3 µM
CCRF-CEM leukemia
  GI50: 2.4 µM
  TGI: 7.74 µM
SN12C renal
  GI50: 4.74 µM
  TGI: 18.7 µM
PC-3 prostate
  GI50: 2.07 µM
  TGI: 7.62 µM
SK-MEL-2 melanoma
  GI50: 2.4 µM
  TGI: 5.67 µM
UO-31 renal
  GI50: 2.81 µM
  TGI: 11.1 µM
CAKI-1 renal
  GI50: 2.05 µM
  TGI: 7.36 µM
SNB-19 CNS
  GI50: 5.41 µM
  TGI: 20.6 µM
A498 renal
  GI50: 2.33 µM
  TGI: 13.9 µM
ACHN renal
  GI50: 4.17 µM
  TGI: 15 µM
SK-MEL-5 melanoma
  GI50: 1.91 µM
  TGI: 4.21 µM
NCI-H226 lung
  GI50: 5.62 µM
  TGI: 30.7 µM
MOLT-4 leukemia
  GI50: 2.4 µM
  TGI: 10.5 µM
HCT-116 colon
  GI50: 2.84 µM
  TGI: 10.6 µM
MCF7 breast
  GI50: 3.24 µM
  TGI: 14.4 µM
RXF 393 renal
  GI50: 3.17 µM
  TGI: 12.8 µM
TK-10 renal
  GI50: 3.31 µM
  TGI: 11.2 µM
